Test results published in PubChem BioAssay (NCI).
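Briefly, cells in 96-well plates were exposed to five compound concentrations for 48 h, and endpoints were estimated by linear interpolation. TGI: concentration producing complete growth inhibition.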

Assays:
Test in all cases: DTP human tumour cell line panel, 48 h
786-0 renal = system: 786-0 renal
A498 renal = system: A498 renal
A549 NSCLC = system: A549 NSCLC
ACHN renal = system: ACHN renal
CAKI-1 renal = system: CAKI-1 renal
CCRF-CEM leukemia = system: CCRF-CEM leukemia
COLO 205 colon = system: COLO 205 colon
DLD-1 colon = system: DLD-1 colon
DMS 114 small cell lung = system: DMS 114 small cell lung
DMS 273 small cell lung = system: DMS 273 small cell lung
EKVX NSCLC = system: EKVX NSCLC
HCC-2998 colon = system: HCC-2998 colon
HCT-116 colon = system: HCT-116 colon
HCT-15 colon = system: HCT-15 colon
HL-60(TB) leukemia = system: HL-60(TB) leukemia
HOP-18 NSCLC = system: HOP-18 NSCLC
HOP-62 NSCLC = system: HOP-62 NSCLC
HOP-92 NSCLC = system: HOP-92 NSCLC
HT29 colon = system: HT29 colon
IGROV1 ovarian = system: IGROV1 ovarian
K-562 leukemia = system: K-562 leukemia
KM12 colon = system: KM12 colon
KM20L2 colon = system: KM20L2 colon
LOX IMVI melanoma = system: LOX IMVI melanoma
LXFL 529 NSCLC = system: LXFL 529 NSCLC
M14 melanoma = system: M14 melanoma
M19-MEL melanoma = system: M19-MEL melanoma
MALME-3M melanoma = system: MALME-3M melanoma
MOLT-4 leukemia = system: MOLT-4 leukemia
NCI-H226 lung = system: NCI-H226 lung
NCI-H23 lung = system: NCI-H23 lung
NCI-H460 lung = system: NCI-H460 lung
NCI-H522 lung = system: NCI-H522 lung
OVCAR-3 ovarian = system: OVCAR-3 ovarian
OVCAR-4 ovarian = system: OVCAR-4 ovarian
OVCAR-5 ovarian = system: OVCAR-5 ovarian
OVCAR-8 ovarian = system: OVCAR-8 ovarian
RPMI-8226 leukemia = system: RPMI-8226 leukemia
RXF 393 renal = system: RXF 393 renal
RXF-631 renal = system: RXF-631 renal
SF-268 CNS = system: SF-268 CNS
SF-295 CNS = system: SF-295 CNS
SF-539 CNS = system: SF-539 CNS
SK-MEL-2 melanoma = system: SK-MEL-2 melanoma
SK-MEL-28 melanoma = system: SK-MEL-28 melanoma
SK-MEL-5 melanoma = system: SK-MEL-5 melanoma
SK-OV-3 ovarian = system: SK-OV-3 ovarian
SN12C renal = system: SN12C renal
SNB-19 CNS = system: SNB-19 CNS
SNB-75 CNS = system: SNB-75 CNS
SNB-78 CNS = system: SNB-78 CNS
SW-620 colon = system: SW-620 colon
TK-10 renal = system: TK-10 renal
U251 CNS = system: U251 CNS
UACC-257 melanoma = system: UACC-257 melanoma
UACC-62 melanoma = system: UACC-62 melanoma
UO-31 renal = system: UO-31 renal

Measured: TGI

O=C1Nc2ccccc2N=CC1NC(=O)C(c1ccccc1)c1ccccc1 (configuration not stated)
> 100 µM: all assays above
